Values after ≈ are worked out from the molar mass of the structure shown. Where two headings read alike, the source gives them in different places.
B1: EcXA120: antisense clone insert to E. coli b1509 (nucleic acid, listed as Escherichia coli)
antisense: TCCGCGATCGCGGATAAAAAGGAGGATTTAAATAAGGCGTTGATGCGCCGTTTGAAGTCGGCAATATTAAGCCGCATGCCATCTCGACATGCGGCTTATACGGTTTACCAGCTATATTTCACTCCCAGCATGCCCTGAGTATCGCTATAGCCTTTATCACCTAGTTGCACACCGACATTCCCCCACAGGCTAAGGTTGTTATTTACTTTCGCCTCAACCCCGGTACGTACTTCACCGAGATTACGCGCACCTTCACGGCCTACGGTTTGACCATTCATCTTCACGGCGTAGACTTTGCTATTGTTGATCCAGTTCGCTTCAATGTAAGGCTGGAACTCACGCTGTTTACCATCGTCACGCTGGTGATGGCTGTTCAGGTAGGTTTTCACCCCAAG
B2: EcXA119: antisense clone insert to E. coli b2883 (nucleic acid, listed as Escherichia coli)
antisense: CTCTTTTTCTTCGAGATGGACGCAGTGAGCAAAGACACAGTTTTTACCGGTCAGGCCGTACTGATGGTAAACATCCAGATAACCATCATGGTCAGGATAAAGCGATTTCACCCAGGCAATTTCATCTTTGTTTTCACAGAGATGGGTATGTACCCACGTATCCGGATATTCTTCTTTCAGGCGTTGCGCCATCGCCATCTGTTCAGGAGATGAGGTCGGGGCGAAGCGTGGCGTAATCGCATATAGCAGACGACC

Legend:
[1] = test system: Bacterial cells expressing antisense nucleic acid complementary to rplL and rplJ (50S ribosomal subunit proteins); test: microbe, parasite or virus in culture; format: cell-based, E. coli; conditions: for IC50: Escherichia coli; for Fold Increase in Sensitivity: IC50 −IPTG versus +IPTG (400 μM); for Sensitivity Increased?: significant decrease in IC50 in the presence of inducer IPTG
Experimental: Two-fold dilution series of antibiotics with a known mechanism of action are generated in the culture media selected for further assay development that has been supplemented with the antibiotic used to maintain the construct. A panel of test antibiotics known to act on different pathways is tested side by side with three to four wells being used to evaluate the effect of a test antibiotic on cell growth at each concentration. Equal volumes of test antibiotic and cells are added to the wells of a 384 well microtiter plate and mixed. Cells are prepared as described above using the media selected for assay development supplemented with the antibiotic required to maintain the antisense construct and are diluted 1:100 in identical media immediately prior to addition to the microtiter plate wells. For a control, cells are also added to several wells that contain the solvent used to dissolve the antibiotics but no antibiotic. Cell growth is monitored continuously by incubation at 37° C. in a microtiter plate reader monitoring the OD600 of the wells over an 18-hour period. […] A plot of percent inhibition against log[antibiotic concentration] allows extrapolation of an IC50 value for each antibiotic.
The culture media selected for use in the assay is supplemented with inducer at concentrations shown to inhibit cell growth by 50% and 80% as described above and the antibiotic used to maintain the construct. Two fold dilution series of the panel of test antibiotics used above are generated in each of these media. Several antibiotics are tested side by side with three to four wells being used to evaluate the effects of an antibiotic on cell growth at each concentration, in each media. Equal volumes of test antibiotic and cells are added to the wells of a 384 well microtiter plate and mixed. Cells are prepared as described above using the media selected for use in the assay supplemented with the antibiotic required to maintain the antisense construct. […] Immediately prior to addition to the microtiter plate wells, the cultures are adjusted to an appropriate OD600 (typically 0.002) by dilution into warm (37° C.) sterile media supplemented with identical concentrations of the inducer and antibiotic used to maintain the antisense construct. For a control, cells are also added to several wells that contain solvent used to dissolve test antibiotics but which contain no antibiotic. Cell growth is monitored continuously by incubation at 37° C. in a microtiter plate reader monitoring the OD600 of the wells over an 18-hour period. […] A plot of percent inhibition against log[antibiotic concentration] allows extrapolation of an IC50 value for each antibiotic.
Antibiotics of various chemical classes and modes of action were purchased from Sigma Chemicals (St. Louis, Mo.). Stock solutions were prepared by dissolving each antibiotic in an appropriate aqueous solution based on information provided by the manufacturer. The final working solution of each antibiotic contained no more than 0.2% (w/v) of any organic solvent. To determine their potency against a bacterial strain engineered for expression of an antisense complementary to a proliferation-required gene encoding 50S ribosomal protein, each antibiotic was serially diluted two or three fold in growth medium supplemented with the appropriate antibiotic for maintenance of the anti-sense construct. At least ten dilutions were prepared for each antibiotic. 25 μL aliquots of each dilution were transferred to discrete wells of a 384-well microplate (the assay plate) using a multi-channel pipette. Quadruplicate wells were used for each dilution of an antibiotic under each treatment condition (plus and minus inducer). Each assay plate contained twenty wells for cell growth controls (growth media replacing antibiotic), ten wells for each treatment (plus and minus inducer, in this example IPTG).

Klebsiella pneumoniae = test: Growth inhibition by induced E. coli antisense RNA in Klebsiella pneumoniae; format: cell-based; parameters: key: +: a positive in Table V below means that at least 10 fold more cells were required to observe a colony on the induced plate than on the non-induced plate; −: If there was no effect of antisense RNA expression in a microorganism, the clone is minus in Table V below; conditions: antisense RNA expression induced with IPTG, serial dilution plating
Experimental: To study the effects of transcriptional induction in liquid medium, growth curves were carried out by back diluting cultures 1:200 into fresh media with or without 1 mM IPTG and measuring the OD450 every 30 minutes (min). To study the effects of transcriptional induction on solid medium, 10^2, 10^3, 10^4, 10^5, 10^6, 10^7 and 10^8 fold dilutions of overnight cultures were prepared. Aliquots of from 0.5 to 3 μl of these dilutions were spotted on selective agar plates with or without 1 mM IPTG. After overnight incubation, the plates were compared to assess the sensitivity of the clones to IPTG.
Molecule No. EcXA190, encoding a portion of the b3052 gene of Escherichia coli, was either transformed directly into Enterobacter cloacae, Salmonella typhimurium and/or Klebsiella pneumoniae or subcloned into an expression vector functional in these species and the subclones transformed into these organisms. Suitable expression vectors are well known in the art. These expression vectors were introduced into Enterobacter cloacae, Salmonella typhimurium and/or Klebsiella pneumoniae cells that were then assayed for growth inhibition according to the method of Example 1. After growth in liquid culture, cells were plated at various serial dilutions and a score determined by calculating the log difference in growth for INDUCED vs. UNINDUCED antisense RNA expression as determined by the maximum 10 fold dilution at which a colony was observed. If there was no effect of antisense RNA expression in one organism, the clone is given a score of zero “0” in that organism. In contrast, a score of “8” means that 10^8 times more cells were required to observe a colony formed on the induced state than in the non-induced state under the conditions used and in that organism.
In addition, the above methods were validated using other antisense nucleic acids which inhibit the growth of E. coli which were identified using methods similar to those described above. Expression vectors which inhibited growth of E. coli upon induction of antisense RNA expression with IPTG were transformed directly into Enterobacter cloacae, Klebsiella pneumonia or Salmonella typhimurium. The transformed cells were then assayed for growth inhibition according to the method of Example 1. After growth in liquid culture, cells were plated at various serial dilutions and a score determined by calculating the log difference in growth for INDUCED vs. UNINDUCED antisense RNA expression as determined by the maximum 10 fold dilution at which a colony was observed. If there was no effect of antisense RNA expression in a microorganism, the clone is minus in Table V below. In contrast, a positive in Table V below means that at least 10 fold more cells were required to observe a colony on the induced plate than on the non-induced plate under the conditions used and in that microorganism.

| Molecule | IC50 ([1]; read-out: IC50 (+IPTG)) [µg/mL] | IC50 ([1]; read-out: IC50 (−IPTG)) [µg/mL] | Fold Increase in Sensitivity [1] | Sensitivity Increased? [1] | IC50 (+IPTG) ([1]; antisense to rplL and rplJ induced, 400 μM IPTG) [µg/mL] | IC50 (−IPTG) ([1]; non-induced cells, 0 μM IPTG) [µg/mL] | Sensitivity of K. pneumoniae to antisense nucleic acid (growth inhibition, induced vs. uninduced) (Klebsiella pneumoniae) |
| --- | --- | --- | --- | --- | --- | --- | --- |
| [H]/N=C(/N)N[C@H]1[C@H](O)[C@@H](O)[C@H](O[C@@H]2O[C@@H](C)[C@](O)(C=O)[C@H]2O[C@@H]2O[C@@H](CO)[C@H](O)[C@@H](O)[C@@H]2NC)[C@@H](N/C(N)=N\[H])[C@@H]1O [Streptomycin] | 0.161 (≈ 0.277 µM) | 11.3 (≈ 19.4 µM) | 70 | Yes |  |  |  |
| Gentamicin |  |  | 141 | Yes | 0.01919 | 2.715 |  |
| CN(C)[C@@H]1C(O)=C(C(N)=O)C(=O)[C@@]2(O)C(O)=C3C(=O)c4c(O)cccc4[C@@](C)(O)[C@H]3C[C@@H]12 [Tetracycline] | 0.00183 (≈ 0.00412 µM) | 0.2 (≈ 0.449 µM) | 109 |  |  |  |  |
| CN(C)c1ccc(O)c2c1C[C@H]1C[C@H]3[C@H](N(C)C)C(O)=C(C(N)=O)C(=O)[C@@]3(O)C(O)=C1C2=O [Minocycline] | 0.0039 (≈ 0.00852 µM) | 0.668 (≈ 1.46 µM) | 172 |  |  |  |  |
| NC[C@H]1O[C@H](O[C@H]2[C@H](O)[C@@H](O[C@H]3O[C@H](CO)[C@@H](O)[C@H](N)[C@H]3O)[C@H](N)C[C@@H]2N)[C@H](N)C[C@@H]1O [Tobramycin] | 0.0706 (≈ 0.151 µM) | 3.59 (≈ 7.69 µM) | 51 | Yes |  |  |  |
| CCC[C@@H]1C[C@@H](C(=O)N[C@@H]([C@H]2O[C@H](SC)[C@H](O)[C@@H](O)[C@H]2O)[C@@H](C)O)N(C)C1 [Lincomycin] | 0.324 (≈ 0.797 µM) | 47.1 (≈ 116 µM) | 145 | Yes |  |  |  |
| O=C(N[C@H](CO)[C@H](O)c1ccc([N+](=O)[O-])cc1)C(Cl)Cl [Chloramphenicol] | 0.00152 (≈ 0.00469 µM) | 0.465 (≈ 1.44 µM) | 307 | Yes |  |  |  |
| B1 |  |  |  |  |  |  | − |
| B2 |  |  |  |  |  |  | − |

— patent US20020022718A1, “Genes identified as required for proliferation of E. coli” (priority 1999, published 2002)
